According to patent publication US9458465B2, “Compositions and methods to modulate cell membrane resealing” (RUTGERS, THE STATE UNIVERSITY OF NEW JERSEY, priority 2007, dated 2016):

Assays:
[1] = system: C2C12 cells expressing GFP-MG53; test: Repair of acute membrane damage: translocation to microelectrode injury site; assay type: cell-based, murine; settings: for Membrane Repair (+Zn-HPT): 2 μM Zn-HPT; for Membrane Repair (−Zn-HPT): extracellular solution with nominal free zinc
Experimental: To follow the process of intracellular vesicle translocation associated with repair of acute membrane damage, GFP-MG53 fusion protein was expressed in C2C12 myoblast cells (FIG. 21a). […]
Cell culture—The C2C12 murine myoblast cell line used for all studies was purchased from the American Type Culture Collection (Manassas, Va.). Cells were grown in a humidified environment at 37° C. and 5% CO2 in DMEM medium for C2C12 or Ham's F12 medium for CHO cells supplemented with 10% fetal bovine serum, 100 units/ml penicillin and 100 ug/ml streptomycin. In order to induce myotube differentiation, C2C12 myoblasts were grown to confluence and the medium was switched to DMEM containing 2% horse serum, penicillin (100 U/ml), streptomycin (100 μg/ml). For transient transfections, C2C12 myoblasts or CHO cells were plated at 70% confluence in glass-bottom dishes. After 24 hours, cells were transfected with plasmids described above using GeneJammer reagent (Stratagene). Cells were visualized by live cell confocal imaging at 24-48 hours after transfection or at times indicated for individual experiments. In some experiments, C2C12 myoblasts were allowed to differentiate into myotubes for the indicated time before observation.
Live cell imaging—To monitor intracellular trafficking of GFP-MG53 either CHO or C2C12 cells were cultured in glass-bottom dishes (Bioptechs Inc.) and transfected with the plasmids described above. Fluorescence images (512×512) were captured at 3.18 s/frame using a BioRad 2100 Radiance laser scanning confocal microscope with a 63×1.3NA oil immersion objective.

[2] = system: FDB muscle fibers from wild type (WT) mice; test: FM1-43 dye entry after UV-laser damage, wild type FDB muscle fibers; assay type: cell-based
Experimental: (§1) FIG. 20. Protective effect of zinc on membrane repair is lost in mg53−/− skeletal muscle. (a) individual flexor digitorum brevis (FDB) muscle fibers were isolated from wild type (WT) mice (3-6 months). A strong UV laser was applied to the FDB fiber that caused local damage to the muscle (arrow). Entry of FM1-43 fluorescent dye (2.5 μM) was used as an indicator for the measurement of membrane repair capacity. The images were taken 200 s following UV irradiation (control). […] (d) Schematic diagram of zinc-binding motifs in MG53. The amino-terminus of MG53 contains two putative zinc-binding motifs: one located at the RING motif (a.a. 1-56, human cDNA), and the other located at the B-box motif (a.a. 86-117, human cDNA). The specific amino acids that participate in zinc-binding are indicated.
as §1, with “Protective” for “FIG. 20. Protective”, “To access membrane repair capacity,” for “(a)”, “months) (FIG. 20a).” for “months).”, “Summary data for panel a and b (FIG. 20c). […]” for “(d)”, “indicated (FIG. 20d).” for “indicated.”

[3] = system: FDB muscle fibers from mg53−/− mice; test: FM1-43 dye entry after UV-laser damage, mg53−/− FDB muscle fibers; assay type: cell-based
Experimental: as §1
as §1, with “Protective” for “FIG. 20. Protective”, “To access membrane repair capacity,” for “(a)”, “months) (FIG. 20a).” for “months).”, “Summary data for panel a and b (FIG. 20c). […]” for “(d)”, “indicated (FIG. 20d).” for “indicated.”

HEK293 cells = test: LDH release after glass microbead damage, HEK293; assay type: cell-based, human
Experimental: Recombinant MG53 can protect kidney cells from mechanical cell membrane damage. HEK293 cells (8×10^4) were treated with glass microbeads to induce mechanical damage (FIG. 37). Different does of recombinant human MG53 or vehicle control was applied to the samples when glass beads were added to the media. Cells were rotated on an orbital shaker and then the supernatant was analyzed for LDH levels.
(§2) Externally applied recombinant MG53 requires phosphatidylserine (PS) binding to reseal damaged membranes. HEK293 cells were treated with recombinant human MG53 or vehicle and them damaged by shaking in the presence of glass microbeads (black bars) (FIG. 40). Membrane damage is measured by LDH release from cells that is recorded by colormetric assay recorded at 488 nm. […] Thus, MG53 must be able to bind exposed PS on damaged cells in order to facilitate membrane repair. * p<0.05
as §2, with “HEK293” for “Externally applied recombinant MG53 requires phosphatidylserine (PS) binding to reseal damaged membranes. HEK293”, “41).” for “40).”

mg53−/− myotubes = test: Membrane repair in transfected mg53−/− myotubes; assay type: cell-based, mice; settings: transfected mg53−/− myotubes; UV injury
Text: The entry of FM4-64, a red-shifted variant of FM1-43, was used as an index of membrane repair capacity in mg53−/− myotubes transfected with GFP-MG53 and GFP-C242A. Following UV-bleaching of the green fluorescence, rapid translocation of GFP-MG53 took place at the injury site, whereas GFP-C242A remained static due to its defective oligomerization properties (FIG. 16E, 17A).
Similar defects with GFP-C29L were also observed in C2C12 myotubes (FIG. 18e, middle).

[4] = C2C12 cells, listed as GFP-C29L/C105S
[5] = C2C12 cells, listed as GFP-C105S

O[C@H](CS)[C@H](O)CS (racemic) [DTT, dithiothreitol, reference compound]
translocation of GFP-MG53 toward the injury site ([1]; reduced extracellular environment (+DTT), 5 mM DTT): largely disrupted
membrane resealing (entry of FM-143 dye) ([2]; isolated muscle fibers, DTT in the extracellular solution): prevents membrane resealing

O=C([O-])CN(CCN(CC(=O)[O-])CC(=O)[O-])CC(=O)[O-].[Ca+2].[Na+].[Na+] [Ca-EDTA]
membrane repair capacity (FM1-43 dye entry) ([2]; WT muscle, Ca-EDTA 100 μM): compromised membrane repair capacity
membrane repair capacity ([3]; mg53−/− muscle, Ca-EDTA): did not produce any significant changes in membrane repair capacity

c1ccc(CN(CCN(Cc2ccccn2)Cc2ccccn2)Cc2ccccn2)nc1 [TPEN, N,N,N,N-tetrakis(2-pyridyl-methyl)ethylenediamine]
translocation of GFP-MG53 containing vesicles toward the mechanical injury site ([1]; 20 μM TPEN in the extracellular solution): completely abolished the translocation
membrane repair capacity (FM1-43 dye entry) ([2]; WT fibers, 40 μM TPEN): compromised membrane repair capacity
membrane repair capacity (FM1-43 dye entry) ([3]; mg53−/− fibers, +TPEN): did not produce more entry of FM1-43 dye

Thimerosal [reference compound]
translocation of GFP-MG53 to injury sites ([1]; oxidizing agent Thimerosal in the extracellular solution): increased translocation

phosphatidylserine [phosphatidylserine (PS), reference compound]
effect on MG53 resealing of plasma membrane (HEK293 cells; simultaneous treatment with recombinant human MG53): can prevent resealing of plasma membrane

B1: Annexin V: a phosphatidylserine (PS) binding protein (protein, UniProt P08758 2-320, looked up)
Annexin A5: AQVLRGTVTDFPGFDERADAETLRKAMKGLGTDEESILTLLTSRSNAQRQEISAAFKTLFGRDLLDDLKSELTGKFEKLIVALMKPSRLYDAYELKHALKGAGTNEKVLTEIIASRTPEELRAIKQVYEEEYGSSLEDDVVGDTSGYYQRMLVVLLQANRDPDAGIDEAQVEQDAQALFQAGELKWGTDEEKFITIFGTRSVSHLRKVFDKYMTISGFQIEETIDRETSGNLEQLLLAVVKSIRSIPAYLAETLYYAMKGAGTDDHTLIRVMVSRSEIDLFNIRKEFRKNFATSLYSMIKGDTSGDYKKALLLLCGEDD
effect on MG53 resealing of plasma membrane (HEK293 cells; excess (5:1), simultaneous with recombinant human MG53): can prevent resealing of plasma membrane

B2: C242A: MG53 mutant, conserved cysteine 242 mutated into alanine (protein)
chain: MSAAPGLLRQELSCPLCLQLFDAPVTAECGHSFCRACLIRVAGEPAADGTVACPCCQAPTRPQALSTNLQLSRLVEGLAQVPQGHCEEHLDPLSIYCEQDRTLVCGVCASLGSHRGHRLLPAAEAQARLKTQLPQQKMQLQEACMRKEKTVAVLEHQLVEVEETVRQFRGAVGEQLGKMRMFLAALESSLDREAERVRGDAGVALRRELSSLNSYLEQLRQMEKVLEEVADKPQTEFLMKFALVTSRLQKILSESPPPARLDIQLPVISDDFKFQVWKKMFRALMPALEELTFDPSSAHPSLVVSSSGRRVECSDQKAPPAGEDTRQFDKAVAVVAQQLLSQGEHYWEVEVGDKPRWALGVMAADASRRGRLHAVPSQGLWLLGLRDGKILEAHVEAKEPRALRTPERPPARIGLYLSFADGVLAFYDASNPDVLTPIFSFHERLPGPVYPIFDVCWHDKGKNAQPLLLVGPEQEQA
modifications: left off: large carriers
notes: MG53 mutant, conserved cysteine 242 mutated into alanine
translocation to injury site and membrane repair function of GFP fusion protein ([1]; C2C12 cells, acute membrane damage): completely disrupted its ability to facilitate the membrane repair process
sarcolemmal membrane repair function ([2]; overexpression in adult wt muscle fibers, compared with GFP-MG53): inhibited sarcolemmal membrane repair function
entry of FM4-64 (membrane repair capacity) (mg53−/− myotubes): not able to restore membrane integrity following injury

B3: C29L/C105S: MG53 double mutant of RING motif (C29L) and B-box motif (C105S) (protein)
chain: MSAAPGLLRQELSCPLCLQLFDAPVTAELGHSFCRACLIRVAGEPAADGTVACPCCQAPTRPQALSTNLQLSRLVEGLAQVPQGHCEEHLDPLSIYCEQDRTLVSGVCASLGSHRGHRLLPAAEAQARLKTQLPQQKMQLQEACMRKEKTVAVLEHQLVEVEETVRQFRGAVGEQLGKMRMFLAALESSLDREAERVRGDAGVALRRELSSLNSYLEQLRQMEKVLEEVADKPQTEFLMKFCLVTSRLQKILSESPPPARLDIQLPVISDDFKFQVWKKMFRALMPALEELTFDPSSAHPSLVVSSSGRRVECSDQKAPPAGEDTRQFDKAVAVVAQQLLSQGEHYWEVEVGDKPRWALGVMAADASRRGRLHAVPSQGLWLLGLRDGKILEAHVEAKEPRALRTPERPPARIGLYLSFADGVLAFYDASNPDVLTPIFSFHERLPGPVYPIFDVCWHDKGKNAQPLLLVGPEQEQA
modifications: left off: large carriers
Membrane Repair (+Zn-HPT) [1, 4]: completely defective in repair of acute membrane damage
Membrane Repair (−Zn-HPT) [1, 4]: completely defective in repair of acute membrane damage

B4: C105S: MG53 single mutation of the B-box motif (protein)
chain: MSAAPGLLRQELSCPLCLQLFDAPVTAECGHSFCRACLIRVAGEPAADGTVACPCCQAPTRPQALSTNLQLSRLVEGLAQVPQGHCEEHLDPLSIYCEQDRTLVSGVCASLGSHRGHRLLPAAEAQARLKTQLPQQKMQLQEACMRKEKTVAVLEHQLVEVEETVRQFRGAVGEQLGKMRMFLAALESSLDREAERVRGDAGVALRRELSSLNSYLEQLRQMEKVLEEVADKPQTEFLMKFCLVTSRLQKILSESPPPARLDIQLPVISDDFKFQVWKKMFRALMPALEELTFDPSSAHPSLVVSSSGRRVECSDQKAPPAGEDTRQFDKAVAVVAQQLLSQGEHYWEVEVGDKPRWALGVMAADASRRGRLHAVPSQGLWLLGLRDGKILEAHVEAKEPRALRTPERPPARIGLYLSFADGVLAFYDASNPDVLTPIFSFHERLPGPVYPIFDVCWHDKGKNAQPLLLVGPEQEQA
modifications: left off: large carriers
notes: MG53 single mutation of the B-box motif
Membrane Repair (+Zn-HPT) [1, 5]: partial rescue of the membrane repair capacity
Membrane Repair (−Zn-HPT) [1, 5]: could not move to the acute injury site
